Experimental findings from paper PMC3954431 (Molecular cancer therapeutics, 2013) are described below.

Series [1] relates to W6/32 mAb (anti-human HLA class I antigen) binding. Nature of the series: Competition of W6/32 mAb binding. It counts as cell-based. Particulars: Fig. S2B.
Series [2] deals with UN1 mAb binding to UN1-positive breast and gastric cancer tissues. The experiment in a line: Competition of UN1 mAb binding to cancer tissues. To be noted: Fig. S3. The arrangement: species or system human.
The test system of another series is UN1 mAb. The experiment in a line: Surface plasmon resonance, UN1 mAb immobilized on CM5 chip. To be noted: Biacore 3000, UN1 mAb immobilized on CM5 chip, peptide 0.1-2.5 mM. In kind it is binding, murine.
Series [3] can be described thus: ELISA reactivity of immunized mice sera against G23 peptide. It counts as in vivo. To be noted: sera of phage-immunized Balb/c mice. A general note: An ELISA detects its analyte on a solid surface through an enzyme-linked reagent.
The nature of series [4]: ELISA reactivity of immunized mice sera against scrambled peptide. Particulars: sera of phage-immunized Balb/c mice. In kind it is in vivo.
For another series, the system named is wild type phage. The experiment in a line: ELISA reactivity of immunized mice sera against wild type phage. In kind it is in vivo. To be noted: sera of phage-immunized Balb/c mice.
The conditions of series [5]: Balb/c mice.
[6] abbreviates: sera, days 7-10 from the 6th boost, 5 animals/group, colorimetric assay, mean ± SEM.

In the case of SFAATPHTCKLLDECVPLWPAEG [G23], the “competition of W6/32 mAb binding” value in series [1] was “did not compete the binding of W6/32 mAb”. The “competition of UN1 mAb binding to breast and gastric cancer tissues” value in series [2] was “competed the binding of UN1 mAb to UN1-positive breast and gastric cancer tissues”.
Consider “TCLAPDVPEPLSHCWAGETFKLA [scrambled peptide]”, for which the SPR signal entry with UN1 mAb is “failed to give the SPR signal”.
TPHTCKLLDECVPLW [phagotope 2/165]: in series [2], the “competition of UN1 mAb binding to breast and gastric cancer tissues” value is “competed the binding of UN1 mAb to UN1-positive breast and gastric cancer tissues”. Further, in series [3], the “serum reactivity against G23 peptide” value is “specific immune response against the UN1 mimotope G23 peptide”. Besides, the “serum reactivity against scrambled peptide” value in series [4] is recorded as “unreactive against the scrambled peptide”. The “antibody response against the wild type phage” value with wild type phage is “strong and comparable antibody response against the wild type phage”. The “health of immunized mice” value in series [5] (5 animals/group, i.p. phage immunization) is “appeared healthy and did not show any ill-effect”. Besides, in series [5] (phage-immunized), the “serum IL1-β, GSH and LDH levels versus normal” value is “in the range of normality”. In series [5] (setting [6]), this sequence returned a GSH of 10.1 ± 0.9 µM and an LDH of 52.9 ± 15.4 IU/L. For the same sequence, in series [5] (serum, days 7-10 from the 6th boost, 5 animals/group, ELISA, mean ± SEM), the IL-1β is 58.2 ± 0.3 pg/mL.
